Measured values from patent US9125388B2, “Biological control” (Isis Innovation Limited, priority 1999, dated 2015).

Test system: Yp3 tTa, tRe Ras64B^V12 on the 2nd chromosome
Experiment: Recombinant chromosome experiments / maternal transmission of Tc (Table 1): parents raised on supplement, progeny on normal food, adults by sex
Assay type: in vivo, Drosophila melanogaster
Conditions: for ♀ progeny emerging as adults / ♂ progeny emerging as adults: 25° C.
Protocol: 40-45 young females and 20-25 young males raised at 25° C. upon food with the indicated tetracycline supplement were allowed to mate, then transferred to normal (tetracycline-free) food after 3-4 days. These flies were transferred to fresh vials of normal food every day for 12 days, then removed on the 13th day. All the vials were incubated at 25° C. while the progeny developed. The numbers of male and female progeny emerging as adults in each vial were recorded.
A standard range of additive concentrations were used in the following experiments (0.05-20 μg/ml). […] (=“not done”)
All the preceding experiments were performed at 25° C., the standard temperature for Drosophila culture. However, the insects in the wild would clearly be exposed to varying temperatures, so we investigated the extent to which the efficiency of the system is affected by temperature. As with the recombinant chromosome experiments, 40-45 young virgin females and 20-25 young males raised at 25° C. upon food with the indicated tetracycline supplement were allowed to mate, then transferred to normal (tetracycline-free) food after 3-4 days. These flies were transferred to fresh vials of normal food every day. The numbers of male and female progeny emerging as adults in each vial were recorded. These experiments were performed at either 18° C. or 29° C.
We used a strain of Drosophila in which females, but not males, require Tc for viability.
A strain homozygous for second chromosome insertions of both Yp3-tTA and tRe-Ras64B^V12 was tested for the effect of parental dietary Tc. 40-45 young females and 20-25 young males raised at 25° C. upon food with the indicated tetracycline supplement were allowed to mate, then transferred to normal (tetracycline-free) food after 3-4 days. These flies were transferred to fresh vials of normal food every day for 12 days, and then removed on the 13th day. All the vials were incubated at 25° C. while the progeny developed. The total numbers of male and female progeny emerging as adults were recorded.

[1] = parents raised on Tc 0.1 μg/ml, Day 8 on normal food
[2] = parents raised on Tc 0.1 μg/ml, Day 9 on normal food
[3] = parents raised on Tc 0.1 μg/ml, Day 10 on normal food
[4] = parents raised on Tc 0.1 μg/ml, Day 11 on normal food
[5] = parents raised on Tc 0.1 μg/ml, Day 12 on normal food
[6] = parents raised on Tc 0.1 μg/ml, Total of Days 1-12 on normal food
[7] = parents raised on Tc 1 μg/ml, Day 8 on normal food
[8] = parents raised on Tc 1 μg/ml, Day 9 on normal food
[9] = parents raised on Tc 1 μg/ml, Day 10 on normal food
[10] = parents raised on Tc 1 μg/ml, Day 11 on normal food
[11] = parents raised on Tc 1 μg/ml, Day 12 on normal food
[12] = parents raised on Tc 1 μg/ml, Total of Days 1-12 on normal food
[13] = parents raised on Tc 5 μg/ml, Day 8 on normal food
[14] = parents raised on Tc 5 μg/ml, Total of Days 1-12 on normal food
[15] = parents raised on Tc 20 μg/ml, Day 1 on normal food
[16] = parents raised on Tc 20 μg/ml, Day 2 on normal food
[17] = parents raised on Tc 20 μg/ml, Day 3 on normal food
[18] = parents raised on Tc 20 μg/ml, Day 4 on normal food
[19] = parents raised on Tc 20 μg/ml, Day 5 on normal food
[20] = parents raised on Tc 20 μg/ml, Day 6 on normal food
[21] = parents raised on Tc 20 μg/ml, Day 7 on normal food
[22] = parents raised on Tc 100 μg/ml, Day 1 on normal food
[23] = parents raised on Tc 100 μg/ml, Day 2 on normal food
[24] = parents raised on Tc 100 μg/ml, Day 3 on normal food
[25] = parents raised on Tc 100 μg/ml, Day 4 on normal food
[26] = parents raised on Tc 100 μg/ml, Day 5 on normal food
[27] = parents raised on Tc 100 μg/ml, Day 6 on normal food
[28] = parents raised on Tc 100 μg/ml, Day 7 on normal food
[29] = parents raised on Tc 500 μg/ml, Day 1 on normal food
[30] = parents raised on Tc 500 μg/ml, Day 2 on normal food
[31] = parents raised on Tc 500 μg/ml, Day 3 on normal food
[32] = parents raised on Tc 500 μg/ml, Day 4 on normal food
[33] = parents raised on Tc 500 μg/ml, Day 5 on normal food
[34] = parents raised on Tc 500 μg/ml, Day 6 on normal food
[35] = parents raised on Tc 500 μg/ml, Day 7 on normal food
[36] = parents raised on Tc 1000 μg/ml, Day 1 on normal food
[37] = parents raised on Tc 1000 μg/ml, Day 2 on normal food
[38] = parents raised on Tc 1000 μg/ml, Day 3 on normal food
[39] = parents raised on Tc 1000 μg/ml, Day 4 on normal food
[40] = parents raised on Tc 1000 μg/ml, Day 5 on normal food
[41] = parents raised on Tc 1000 μg/ml, Day 6 on normal food
[42] = parents raised on Tc 1000 μg/ml, Day 7 on normal food
[43] = parents raised on Tc 2000 μg/ml, Day 1 on normal food
[44] = parents raised on Tc 2000 μg/ml, Day 2 on normal food
[45] = parents raised on Tc 2000 μg/ml, Day 3 on normal food
[46] = parents raised on Tc 2000 μg/ml, Day 4 on normal food
[47] = parents raised on Tc 2000 μg/ml, Day 5 on normal food
[48] = parents raised on Tc 2000 μg/ml, Day 6 on normal food
[49] = parents raised on Tc 2000 μg/ml, Day 7 on normal food
[50] = parents raised on tetracycline 0.1 μg/ml, 18° C.
[51] = parents raised on tetracycline 0.1 μg/ml, 29° C.
[52] = parents raised on tetracycline 1 μg/ml, 18° C.
[53] = parents raised on tetracycline 1 μg/ml, 29° C.
[54] = parents raised on tetracycline 5 μg/ml, 18° C.
[55] = parents raised on tetracycline 5 μg/ml, 29° C.

CN(C)[C@@H]1C(O)=C(C(N)=O)C(=O)[C@@]2(O)C(O)=C3C(=O)c4c(O)cccc4[C@@](C)(O)[C@H]3C[C@@H]12 [Tetracycline, tetracycline]
♀ progeny emerging as adults [1]: 0 | ♂ progeny emerging as adults [1]: 105 | ♀ progeny emerging as adults [2]: 0 | ♂ progeny emerging as adults [2]: 133 | ♀ progeny emerging as adults [3]: 0 | ♂ progeny emerging as adults [3]: 93 | ♀ progeny emerging as adults [4]: 0 | ♂ progeny emerging as adults [4]: 131 | ♀ progeny emerging as adults [5]: 0 | ♂ progeny emerging as adults [5]: 121 | ♀ progeny emerging as adults [6]: 0 | ♂ progeny emerging as adults [6]: 1363 | ♀ progeny emerging as adults [7]: 0 | ♂ progeny emerging as adults [7]: 90 | ♀ progeny emerging as adults [8]: 0 | ♂ progeny emerging as adults [8]: 119 | ♀ progeny emerging as adults [9]: 0 | ♂ progeny emerging as adults [9]: 94 | ♀ progeny emerging as adults [10]: 0 | ♂ progeny emerging as adults [10]: 98 | ♀ progeny emerging as adults [11]: 0 | ♂ progeny emerging as adults [11]: 100 | ♀ progeny emerging as adults [12]: 0 | ♂ progeny emerging as adults [12]: 1360 | ♀ progeny emerging as adults [13]: 0 | ♂ progeny emerging as adults [13]: 119 | ♂ progeny emerging as adults (parents raised on Tc 5 μg/ml, Day 9 on normal food): 96 | ♀ progeny emerging as adults (parents raised on Tc 5 μg/ml, Day 12 on normal food): 0 | ♀ progeny emerging as adults [14]: 0 | ♂ progeny emerging as adults [14]: 1384 | ♀ progeny emerging as adults [15]: 0 | ♂ progeny emerging as adults [15]: 89 | ♀ progeny emerging as adults [16]: 0 | ♂ progeny emerging as adults [16]: 107 | ♀ progeny emerging as adults [17]: 0 | ♂ progeny emerging as adults [17]: 107 | ♀ progeny emerging as adults [18]: 0 | ♂ progeny emerging as adults [18]: 98 | ♀ progeny emerging as adults [19]: 0 | ♂ progeny emerging as adults [19]: 88 | ♀ progeny emerging as adults [20]: 0 | ♂ progeny emerging as adults [20]: 102 | ♀ progeny emerging as adults [21]: 0 | ♂ progeny emerging as adults [21]: 107 | ♀ progeny emerging as adults [22]: 0 | ♂ progeny emerging as adults [22]: 129 | ♀ progeny emerging as adults [23]: 0 | ♂ progeny emerging as adults [23]: 136 | ♀ progeny emerging as adults [24]: 0 | ♂ progeny emerging as adults [24]: 128 | ♀ progeny emerging as adults [25]: 0 | ♂ progeny emerging as adults [25]: 127 | ♀ progeny emerging as adults [26]: 0 | ♂ progeny emerging as adults [26]: 135 | ♀ progeny emerging as adults [27]: 0 | ♂ progeny emerging as adults [27]: 144 | ♀ progeny emerging as adults [28]: 0 | ♂ progeny emerging as adults [28]: 107 | ♀ progeny emerging as adults [29]: 2 | ♂ progeny emerging as adults [29]: 136 | ♀ progeny emerging as adults [30]: 0 | ♂ progeny emerging as adults [30]: 88 | ♀ progeny emerging as adults [31]: 0 | ♂ progeny emerging as adults [31]: 113 | ♀ progeny emerging as adults [32]: 0 | ♂ progeny emerging as adults [32]: 113 | ♀ progeny emerging as adults [33]: 0 | ♂ progeny emerging as adults [33]: 87 | ♀ progeny emerging as adults [34]: 0 | ♂ progeny emerging as adults [34]: 94 | ♀ progeny emerging as adults [35]: 0 | ♂ progeny emerging as adults [35]: 109 | ♀ progeny emerging as adults [36]: 13 | ♂ progeny emerging as adults [36]: 107 | ♀ progeny emerging as adults [37]: 5 | ♂ progeny emerging as adults [37]: 140 | ♀ progeny emerging as adults [38]: 0 | ♂ progeny emerging as adults [38]: 110 | ♀ progeny emerging as adults [39]: 0 | ♂ progeny emerging as adults [39]: 141 | ♀ progeny emerging as adults [40]: 0 | ♂ progeny emerging as adults [40]: 98 | ♀ progeny emerging as adults [41]: 0 | ♂ progeny emerging as adults [41]: 129 | ♀ progeny emerging as adults [42]: 0 | ♂ progeny emerging as adults [42]: 88 | ♀ progeny emerging as adults [43]: 32 | ♂ progeny emerging as adults [43]: 119 | ♀ progeny emerging as adults [44]: 15 | ♂ progeny emerging as adults [44]: 102 | ♀ progeny emerging as adults [45]: 12 | ♂ progeny emerging as adults [45]: 107 | ♀ progeny emerging as adults [46]: 9 | ♂ progeny emerging as adults [46]: 109 | ♀ progeny emerging as adults [47]: 8 | ♂ progeny emerging as adults [47]: 109 | ♀ progeny emerging as adults [48]: 2 | ♂ progeny emerging as adults [48]: 140 | ♀ progeny emerging as adults [49]: 0 | ♂ progeny emerging as adults [49]: 127 | Female progeny emerging as adults [50]: 2 | Male progeny emerging as adults [50]: 1190 | Female progeny emerging as adults [51]: 0 | Male progeny emerging as adults [51]: 718 | Female progeny emerging as adults [52]: 4 | Male progeny emerging as adults [52]: 1213 | Female progeny emerging as adults [53]: 0 | Male progeny emerging as adults [53]: 753 | Female progeny emerging as adults [54]: 0 | Male progeny emerging as adults [54]: 1058 | Female progeny emerging as adults [55]: 0 | Male progeny emerging as adults [55]: 757 | parental food concentration leading to survival of a small proportion of female progeny (progeny on media lacking Tc): ≥ 500 µg/mL | food concentration sufficient to suppress expression of the toxic gene, allowing both males and females to survive (strain grown on supplemented food): 0.1 µg/mL
